Test results from ChEMBL document CHEMBL5154682, “TDP-43 Modulation by Tau-Tubulin Kinase 1 Inhibitors: A New Avenue for Future Amyotrophic Lateral Sclerosis Therapy” (J Med Chem, 2022).
Calls of active or inactive are those of the source. No cut-off for these calls is given here.

Tests used:
[1] = Permeability in BALB/c mouse assessed as brain to plasma ratio at 10 mg/kg, po measured for 0.25 to 24 hrs by LC-MS/MS analysis; assay type: ADME, organism-based; settings: time 0.25-24 hrs
Tau-tubulin kinase 1 [2] = molecular target: T1, Tau-tubulin kinase 1 (Homo sapiens, UniProt Q5TCY1); test: Inhibition of TTBK1 in sporadic ALS patient derived human lymphoblasts assessed as reduction in TDP-43 phosphorylation levels at 5 to 10 uM treated for 24 hrs by Western blot analysis; assay type: cell-based; settings: Lymphoblastoid cell, dose 5-10 µM
T1 sequence (Q5TCY1 whole entry): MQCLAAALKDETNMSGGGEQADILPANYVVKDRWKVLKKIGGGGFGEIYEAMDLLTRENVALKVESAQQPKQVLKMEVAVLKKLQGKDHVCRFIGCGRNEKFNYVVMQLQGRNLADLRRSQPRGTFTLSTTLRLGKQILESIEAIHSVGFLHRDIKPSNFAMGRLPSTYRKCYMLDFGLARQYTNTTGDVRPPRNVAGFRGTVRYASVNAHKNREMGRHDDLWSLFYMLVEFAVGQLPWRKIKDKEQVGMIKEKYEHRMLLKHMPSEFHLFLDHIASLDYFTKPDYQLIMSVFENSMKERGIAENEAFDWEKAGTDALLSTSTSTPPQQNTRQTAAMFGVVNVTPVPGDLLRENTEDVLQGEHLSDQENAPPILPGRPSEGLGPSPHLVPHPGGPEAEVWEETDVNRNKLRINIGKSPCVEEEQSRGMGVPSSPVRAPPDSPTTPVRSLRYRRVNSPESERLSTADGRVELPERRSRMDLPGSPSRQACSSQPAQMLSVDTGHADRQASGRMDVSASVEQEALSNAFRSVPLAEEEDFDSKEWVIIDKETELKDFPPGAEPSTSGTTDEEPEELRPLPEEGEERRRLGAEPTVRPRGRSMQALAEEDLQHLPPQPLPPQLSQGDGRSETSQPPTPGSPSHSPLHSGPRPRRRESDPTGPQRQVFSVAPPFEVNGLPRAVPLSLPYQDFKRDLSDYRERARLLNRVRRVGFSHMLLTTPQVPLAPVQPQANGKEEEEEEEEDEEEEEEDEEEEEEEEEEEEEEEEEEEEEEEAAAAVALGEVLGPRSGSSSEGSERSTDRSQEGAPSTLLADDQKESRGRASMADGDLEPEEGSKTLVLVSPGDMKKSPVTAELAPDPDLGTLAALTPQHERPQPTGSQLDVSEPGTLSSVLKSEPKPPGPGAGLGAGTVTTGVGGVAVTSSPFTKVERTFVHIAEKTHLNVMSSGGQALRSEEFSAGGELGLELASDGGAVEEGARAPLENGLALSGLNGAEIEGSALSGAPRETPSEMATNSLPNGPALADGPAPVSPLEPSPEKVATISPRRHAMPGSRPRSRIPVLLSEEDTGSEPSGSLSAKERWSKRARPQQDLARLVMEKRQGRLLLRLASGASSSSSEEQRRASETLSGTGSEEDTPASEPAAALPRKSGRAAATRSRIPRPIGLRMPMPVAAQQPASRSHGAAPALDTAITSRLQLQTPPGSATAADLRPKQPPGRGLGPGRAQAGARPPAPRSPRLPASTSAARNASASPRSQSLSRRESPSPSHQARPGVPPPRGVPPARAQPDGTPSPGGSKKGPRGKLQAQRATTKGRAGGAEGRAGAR

[3] = AUClast in BALB/c mouse plasma at 5 mg/kg, ip measured for 0.08 to 24 hrs by LC-MS/MS analysis; assay type: ADME, organism-based; parameters: dose 5 mg/kg, time 0.08-24 hrs, route ip
[4] = Half life in BALB/c mouse brain at 10 mg/kg, po measured for 0.25 to 24 hrs by LC-MS/MS analysis; assay type: ADME, organism-based; settings: time 0.25-24 hrs
[5] = Tmax in BALB/c mouse brain at 10 mg/kg, po measured for 0.25 to 24 hrs by LC-MS/MS analysis; assay type: ADME, organism-based; settings: time 0.25-24 hrs
[6] = Tmax in BALB/c mouse brain at 5 mg/kg, ip measured for 0.08 to 24 hrs by LC-MS/MS analysis; assay type: ADME, organism-based; settings: time 0.08-24 hrs
[7] = Cmax in BALB/c mouse brain at 10 mg/kg, po measured for 0.25 to 24 hrs by LC-MS/MS analysis; assay type: ADME, organism-based; parameters: dose 10 mg/kg, time upper 24 hrs, time lower 0.25 hrs, route po
Mus musculus [8] = test: Immunomodulatory effect in Prp-hTDP-43 (A315T) transgenic mouse assessed as decrease in Iba-1 immunoreactivity in microglial cells at 5 mg/kg, ip qd for 30 days by immunofluorescence analysis; assay type: functional, organism-based; settings: time 30.0 day
[9] = Half life in BALB/c mouse brain at 5 mg/kg, ip measured for 0.08 to 24 hrs by LC-MS/MS analysis; assay type: ADME, organism-based; settings: time 0.08-24 hrs
SH-SY5Y [10] = test: Neuroprotective activity against okadaic acid-induced neurotoxicity in human SH-SY5Y cells assessed as reduction in Tau hyperphosphorylation by measuring cell viability at 1 to 5 uM incubated for 24 hrs by MTT assay; assay type: functional, cell-based; settings: dose 1-5 µM
[11] = Cmax in BALB/c mouse brain at 5 mg/kg, ip measured for 0.08 to 24 hrs by LC-MS/MS analysis; assay type: ADME, organism-based; parameters: dose 5 mg/kg, time upper 24 hrs, time lower 0.08 hrs, route ip
[12] = Cmax in BALB/c mouse plasma at 10 mg/kg, po measured for 0.25 to 24 hrs by LC-MS/MS analysis; assay type: ADME, organism-based; parameters: time upper 24 hrs, time lower 0.25 hrs, dose 10 mg/kg, route po
Mus musculus [13] = test: Immunomodulatory effect in Prp-hTDP-43 (A315T) transgenic mouse assessed as increase in […] expression in lumbar region of spinal cord at 5 mg/kg, ip qd for 30 days by western blot analysis; assay type: functional, organism-based; settings: time 30.0 day
SH-SY5Y [14] = test: Neuroprotective activity against ethacrynic acid-induced neurotoxicity human SH-SY5Y cells assessed as increase in cell viability at 5 uM preincubated for 1 hr followed by ethacrynic acid addition and further incubated for 24 hrs by MTT assay; assay type: functional, cell-based; settings: time 25.0 hrs
Tau-tubulin kinase 1 [15] = molecular target: T1, Tau-tubulin kinase 1; test: Inhibition of recombinant human TTBK1 in ethacrynic acid-treated human SH-SY5Y cells assessed as nuclear localization by measuring reduction in cytosolic TDP-43 accumulation at 5 uM preincubated for 1 hr followed by EA addition and further incubated for 24 hrs by confocal laser scanning microscopy; settings: time 25.0 hrs
Tau-tubulin kinase 1 [16] = molecular target: T1, Tau-tubulin kinase 1; test: Inhibition of TTBK1 in sporadic ALS patient derived human lymphoblasts assessed as recovery nuclear localization of TDP-43 levels at 5 to 10 uM treated for 24 hrs by Western blot analysis; assay type: cell-based; settings: Lymphoblastoid cell, dose 5-10 µM
[17] = AUClast in BALB/c mouse brain at 5 mg/kg, ip measured for 0.08 to 24 hrs by LC-MS/MS analysis; assay type: ADME, organism-based; parameters: dose 5 mg/kg, time 0.08-24 hrs, route ip
Mus musculus [18] = test: Prevention of TDP-43 phosphorylation level in Wild type mouse at lumbar region of spinal cord tissue at 5 mg/kg, ip qd for 30 days by Immunoblot assay; assay type: functional, organism-based; settings: time 30.0 day
[19] = molecular target: Tau tubulin kinase 1 (Rattus norvegicus) (UniProt A0A0G2JTK1); test: Inhibition of TTBK1 in Wistar rat primary microglia assessed as reduction in LPS-stimulated iNOS induction at 5 to 25 uM measured after 24 hrs by western blot analysis; assay type: cell-based; settings: dose 5-25 µM
Tau tubulin kinase 1 (Rattus norvegicus), sequence (A0A0G2JTK1 as listed by the source): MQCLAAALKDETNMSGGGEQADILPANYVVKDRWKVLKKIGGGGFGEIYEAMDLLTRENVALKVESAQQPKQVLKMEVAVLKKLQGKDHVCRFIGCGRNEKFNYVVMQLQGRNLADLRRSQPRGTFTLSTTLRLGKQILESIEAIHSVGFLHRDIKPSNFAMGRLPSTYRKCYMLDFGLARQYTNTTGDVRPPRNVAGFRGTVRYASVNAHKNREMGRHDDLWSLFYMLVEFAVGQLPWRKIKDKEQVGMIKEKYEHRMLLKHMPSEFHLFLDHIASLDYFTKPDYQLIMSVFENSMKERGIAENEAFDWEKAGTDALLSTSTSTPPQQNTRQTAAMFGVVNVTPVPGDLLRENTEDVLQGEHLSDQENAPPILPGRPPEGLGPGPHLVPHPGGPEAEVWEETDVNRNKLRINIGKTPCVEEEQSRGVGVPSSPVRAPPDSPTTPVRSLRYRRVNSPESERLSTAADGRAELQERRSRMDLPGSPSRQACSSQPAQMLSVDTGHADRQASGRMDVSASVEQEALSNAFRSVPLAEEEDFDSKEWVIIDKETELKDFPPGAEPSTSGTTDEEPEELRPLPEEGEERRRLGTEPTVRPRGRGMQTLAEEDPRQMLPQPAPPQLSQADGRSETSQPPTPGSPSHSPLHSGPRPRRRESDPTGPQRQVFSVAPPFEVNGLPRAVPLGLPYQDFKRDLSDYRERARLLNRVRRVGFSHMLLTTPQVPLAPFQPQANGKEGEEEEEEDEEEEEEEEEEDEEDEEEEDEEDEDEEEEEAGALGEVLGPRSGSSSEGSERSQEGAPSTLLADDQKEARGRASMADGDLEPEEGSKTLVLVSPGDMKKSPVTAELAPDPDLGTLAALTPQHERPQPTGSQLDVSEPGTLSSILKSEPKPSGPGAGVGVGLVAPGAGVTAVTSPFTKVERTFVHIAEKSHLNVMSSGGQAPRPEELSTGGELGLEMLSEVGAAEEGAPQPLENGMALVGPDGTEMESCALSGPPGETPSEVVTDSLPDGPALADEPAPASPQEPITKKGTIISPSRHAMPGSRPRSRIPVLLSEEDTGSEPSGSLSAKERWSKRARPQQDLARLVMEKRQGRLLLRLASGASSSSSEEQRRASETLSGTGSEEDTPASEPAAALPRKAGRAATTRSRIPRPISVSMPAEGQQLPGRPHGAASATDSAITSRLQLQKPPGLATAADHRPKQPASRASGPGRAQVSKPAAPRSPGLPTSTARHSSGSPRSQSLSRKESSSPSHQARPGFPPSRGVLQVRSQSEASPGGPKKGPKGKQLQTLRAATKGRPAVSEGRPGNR

[20] = AUClast in BALB/c mouse brain at 10 mg/kg, po measured for 0.25 to 24 hrs by LC-MS/MS analysis; assay type: ADME, organism-based; parameters: dose 10 mg/kg, time 0.25-24 hrs, route po
[21] = Half life in BALB/c mouse plasma at 10 mg/kg, po measured for 0.25 to 24 hrs by LC-MS/MS analysis; assay type: ADME, organism-based; settings: time 0.25-24 hrs
Mus musculus [22] = test: Immunomodulatory effect in Prp-hTDP-43 (A315T) transgenic mouse assessed as reduction in iNOS expression in lumbar region of spinal cord at 5 mg/kg, ip qd for 30 days by Western blot analysis; assay type: functional, organism-based; settings: time 30.0 day
[23] = Permeability coefficient in BALB/c mouse assessed as brain to plasma ratio at 5 mg/kg, ip measured for 0.08 to 24 hrs by LC-MS/MS analysis; assay type: ADME, organism-based; settings: time 0.08-24 hrs
[24] = Permeability of the compound at pH 7.4 PBS/EtOH buffer (70:30) by PAMPA-BBB assay
Mus musculus [25] = test: Immunomodulatory effect in Prp-hTDP-43 (A315T) transgenic mouse assessed as decrease in GFAP immunoreactivity in astrocytes at 5 mg/kg, ip qd for 30 days by immunofluorescence analysis; assay type: functional, organism-based; settings: time 30.0 day
[26] = AUClast in BALB/c mouse plasma at 10 mg/kg, po measured for 0.25 to 24 hrs by LC-MS/MS analysis; assay type: ADME, organism-based; parameters: dose 10 mg/kg, time upper 24 hrs, time lower 0.25 hrs, route po
[27] = Tmax in BALB/c mouse plasma at 5 mg/kg, ip measured for 0.08 to 24 hrs by LC-MS/MS analysis; assay type: ADME, organism-based; settings: time 0.08-24 hrs
Mus musculus [28] = test: Protection of neuron degeneration in Prp-hTDP-43 (A315T) transgenic mouse assessed as prevention of reduction in number of motor neurons in ventral horn of spinal cord at 5 mg/kg, ip qd for 30 days by Nissl staining based immunohistochemistry analysis; assay type: functional, organism-based; settings: time 30.0 day
Mus musculus [29] = test: Protection of neuron degeneration in Prp-hTDP-43 (A315T) transgenic mouse assessed as prevention of reduction in number of motor neurons in ventral horn of spinal cord at 5 mg/kg, ip qd for 30 days by choline acetyl transferase staining based immunohistochemistry analysis; assay type: functional, organism-based; settings: time 30.0 day
Tau-tubulin kinase 1 [30] = molecular target: T1, Tau-tubulin kinase 1; test: Inhibition of TTBK1 in sporadic ALS patient derived human lymphoblasts assessed as reduction in cytosolic TDP-43 levels at 5 to 10 uM treated for 24 hrs by Western blot analysis; assay type: cell-based; settings: Lymphoblastoid cell, dose 5-10 µM
[31] = Half life in BALB/c mouse plasma at 5 mg/kg, ip measured for 0.08 to 24 hrs by LC-MS/MS analysis; assay type: ADME, organism-based; settings: time 0.08-24 hrs
[32] = Cmax in BALB/c mouse plasma at 5 mg/kg, ip measured for 0.08 to 24 hrs by LC-MS/MS analysis; assay type: ADME, organism-based; parameters: dose 5 mg/kg, time 0.08-24 hrs, route ip
[33] = Tmax in BALB/c mouse plasma at 10 mg/kg, po measured for 0.25 to 24 hrs by LC-MS/MS analysis; assay type: ADME, organism-based; settings: time 0.25-24 hrs
SH-SY5Y [34] = test: Neuroprotective activity against ethacrynic acid-induced neurotoxicity human SH-SY5Y cells assessed as decrease in TDP-43 phosphorylation at Ser409 at 5 uM preincubated for 1 hr followed by EA addition and further incubated for 24 hrs by Western blot analysis; assay type: functional, cell-based; settings: time 25.0 hrs

Clc1ccc(Oc2ccc(Nc3ncnc4[nH]ccc34)cc2)cc1
Kp [1]: 2.67 | Activity (Tau-tubulin kinase 1 [2]): Active | AUC(0-t) [3]: 5960 ng·h/mL | half-life [4]: 3.4 h | Tmax [5]: 2 h | Tmax [6]: 1 h | Cmax [7]: 4920 ng/mL | Activity (Mus musculus [8]): Active | half-life [9]: 3.46 h | Activity (SH-SY5Y [10]): Active | Cmax [11]: 4170 ng/mL | Cmax [12]: 2270 ng/mL | Activity (Mus musculus [13]): Active | Activity (SH-SY5Y [14]): Active | inhibition (Tau-tubulin kinase 1 [15]): Active | Activity (Tau-tubulin kinase 1 [16]): Active | AUC(0-t) [17]: 15700 ng·h/mL | Activity (Mus musculus [18]): Active | inhibition [19]: Active | AUC(0-t) [20]: 49200 ng·h/mL | half-life [21]: 3.3 h | Activity (Mus musculus [22]): Active | Kp [23]: 2.63 | permeability [24]: Permeable | Activity (Mus musculus [25]): Active | AUC(0-t) [26]: 18400 ng·h/mL | Tmax [27]: 1 h | Activity (Mus musculus [28]): Active | Activity (Mus musculus [29]): Active | Activity (Tau-tubulin kinase 1 [30]): Active | half-life [31]: 3.75 h | Cmax [32]: 1430 ng/mL | Tmax [33]: 2 h | Activity (SH-SY5Y [34]): Active
